According to US10167262B2, “Herbicidal substituted 3-arylpyrazoles” (FMC CORPORATION, priority 2014, dated 2019):

Tests used:
Test in all cases: Test E pre-/postemergence greenhouse test, plant response rating 0-100
Format in all cases: in vivo
[1] = system: giant foxtail (Setaria faberii); details: Preemergence, scale 0 to 100
[2] = system: velvetleaf (Abutilon theophrasti); details: Preemergence, scale 0 to 100
Method in brief: (§1)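 Seeds sown in silt loam soil received preemergence treatment with compound in a non-phytotoxic solvent mixture containing surfactant. Postemergence, plants at 2–18 cm (1- to 4-leaf stage) in peat/vermiculite medium were sprayed with the same formulation. Visual injury versus untreated controls was rated 0–100 after 14 to 21 days in the greenhouse.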

[3] = system: surinam grass (Brachiaria decumbens); details: Preemergence, scale 0 to 100
Method in brief: as §1

[4] = system: ragweed (common ragweed, Ambrosia elatior); details: Preemergence, scale 0 to 100
Method in brief: as §1

[5] = system: cocklebur (common cocklebur, Xanthium strumarium); details: Preemergence, scale 0 to 100
Method in brief: as §1

[6] = system: goosegrass (Eleusine indica); details: Preemergence, scale 0 to 100
[7] = system: morningglory (Ipomoea coccinea); details: Preemergence, scale 0 to 100
[8] = system: green foxtail (Setaria viridis); details: Preemergence, scale 0 to 100
[9] = system: smartweed (ladysthumb smartweed, Polygonum persicaria); details: scale 0 to 100; for Smartweed plant response rating: Preemergence

O=C(c1ccccc1)c1cn(S(=O)(=O)CC(F)(F)F)nc1-c1cc(Cl)cc(Cl)c1 [Compound 3]
35: Foxtail, Giant plant response rating ([1]; 500 g ai/ha) | Velvetleaf plant response rating ([2]; 125 g ai/ha) | Goosegrass plant response rating ([6]; 250 g ai/ha) | Goosegrass plant response rating ([6]; 500 g ai/ha)
90: Plant response rating, Smartweed ([9]; Postemergence, 500 g ai/ha)
40: Velvetleaf plant response rating ([2]; 250 g ai/ha)
80: Velvetleaf plant response rating ([2]; 500 g ai/ha)
20: Velvetleaf plant response rating ([2]; 31 g ai/ha) | Velvetleaf plant response rating ([2]; 62 g ai/ha)
0: Foxtail, Giant plant response rating ([1]; 31 g ai/ha) | Foxtail, Giant plant response rating ([1]; 62 g ai/ha) | Foxtail, Giant plant response rating ([1]; 125 g ai/ha) | Surinam Grass plant response rating ([3]; 31 g ai/ha) | Surinam Grass plant response rating ([3]; 62 g ai/ha) | Surinam Grass plant response rating ([3]; 125 g ai/ha) | Surinam Grass plant response rating ([3]; 250 g ai/ha) | Surinam Grass plant response rating ([3]; 500 g ai/ha) | Ragweed plant response rating ([4]; 31 g ai/ha) | Ragweed plant response rating ([4]; 62 g ai/ha) | Ragweed plant response rating ([4]; 125 g ai/ha) | Cocklebur plant response rating ([5]; 31 g ai/ha) | Cocklebur plant response rating ([5]; 250 g ai/ha) | Goosegrass plant response rating ([6]; 31 g ai/ha) | Goosegrass plant response rating ([6]; 62 g ai/ha) | Goosegrass plant response rating ([6]; 125 g ai/ha) | Morningglory plant response rating ([7]; 31 g ai/ha) | Morningglory plant response rating ([7]; 62 g ai/ha) | Morningglory plant response rating ([7]; 125 g ai/ha) | Morningglory plant response rating ([7]; 250 g ai/ha) | Morningglory plant response rating ([7]; 500 g ai/ha) | Foxtail, Green plant response rating ([8]; 31 g ai/ha) | Foxtail, Green plant response rating ([8]; 62 g ai/ha) | Foxtail, Green plant response rating ([8]; 125 g ai/ha) | Foxtail, Green plant response rating ([8]; 250 g ai/ha) | Foxtail, Green plant response rating ([8]; 500 g ai/ha) | Smartweed plant response rating ([9]; 31 g ai/ha) | Smartweed plant response rating ([9]; 62 g ai/ha) | Smartweed plant response rating ([9]; 125 g ai/ha) | Smartweed plant response rating ([9]; 250 g ai/ha) | Smartweed plant response rating ([9]; 500 g ai/ha)
100: Ragweed plant response rating ([4]; 250 g ai/ha)
95: Ragweed plant response rating ([4]; 500 g ai/ha)
15: Foxtail, Giant plant response rating ([1]; 250 g ai/ha)

O=C(c1ccccc1)c1cn(CO)nc1-c1cc(Cl)cc(Cl)c1 [Compound 15, [3-(3,5-dichlorophenyl)-1-(hydroxymethyl)-1H-pyrazol-4-yl]phenylmethanone]
25: Velvetleaf plant response rating ([2]; 62 g ai/ha)
35: Velvetleaf plant response rating ([2]; 125 g ai/ha)
95: Ragweed plant response rating ([4]; 250 g ai/ha)
0: Foxtail, Giant plant response rating ([1]; 31 g ai/ha) | Foxtail, Giant plant response rating ([1]; 62 g ai/ha) | Foxtail, Giant plant response rating ([1]; 125 g ai/ha) | Foxtail, Giant plant response rating ([1]; 250 g ai/ha) | Foxtail, Giant plant response rating ([1]; 500 g ai/ha) | Surinam Grass plant response rating ([3]; 31 g ai/ha) | Surinam Grass plant response rating ([3]; 62 g ai/ha) | Surinam Grass plant response rating ([3]; 125 g ai/ha) | Surinam Grass plant response rating ([3]; 250 g ai/ha) | Surinam Grass plant response rating ([3]; 500 g ai/ha) | Ragweed plant response rating ([4]; 31 g ai/ha) | Ragweed plant response rating ([4]; 62 g ai/ha) | Ragweed plant response rating ([4]; 125 g ai/ha) | Cocklebur plant response rating ([5]; 31 g ai/ha) | Cocklebur plant response rating ([5]; 62 g ai/ha) | Cocklebur plant response rating ([5]; 125 g ai/ha) | Goosegrass plant response rating ([6]; 31 g ai/ha) | Goosegrass plant response rating ([6]; 125 g ai/ha) | Goosegrass plant response rating ([6]; 250 g ai/ha) | Goosegrass plant response rating ([6]; 500 g ai/ha) | Morningglory plant response rating ([7]; 62 g ai/ha) | Morningglory plant response rating ([7]; 125 g ai/ha) | Morningglory plant response rating ([7]; 250 g ai/ha) | Morningglory plant response rating ([7]; 500 g ai/ha) | Foxtail, Green plant response rating ([8]; 31 g ai/ha) | Foxtail, Green plant response rating ([8]; 62 g ai/ha) | Foxtail, Green plant response rating ([8]; 125 g ai/ha) | Foxtail, Green plant response rating ([8]; 250 g ai/ha) | Foxtail, Green plant response rating ([8]; 500 g ai/ha) | Smartweed plant response rating ([9]; 31 g ai/ha) | Smartweed plant response rating ([9]; 62 g ai/ha) | Smartweed plant response rating ([9]; 125 g ai/ha)
65: Velvetleaf plant response rating ([2]; 250 g ai/ha)
100: Velvetleaf plant response rating ([2]; 500 g ai/ha) | Ragweed plant response rating ([4]; 500 g ai/ha) | Smartweed plant response rating ([9]; 250 g ai/ha) | Smartweed plant response rating ([9]; 500 g ai/ha)
20: Velvetleaf plant response rating ([2]; 31 g ai/ha)
